≈ marks a conversion by molar mass, not a printed value.

The conditions of this series: buffer; pH 7.4; 200.0 µM.
Regarding `CCc1nc(N2CCN(C(C)=O)CC2)c2c3c(sc2n1)CCCC3`, the kinetic solubility (as a rule, solubility judged after dilution from a stock solution rather than from solid) was greater than 51.7 µg/mL. With `COC(=O)c1ccc(OC)c(Cn2c(=O)n(C)c(=O)c3ccccc32)c1` the figure was 2.2 µg/mL (≈ 6.21 µM). For `COc1ccc(NC(=S)Nc2cccc(C)n2)cc1` the value was less than 0.2 µg/mL; for `O=C(O)c1ccc(-c2nnc(-c3ccccc3)o2)cc1`, greater than 39.9 µg/mL; for `COc1ccccc1CC(=O)NC12CC3CC(CC(C3)C1)C2`, 7.8 µg/mL (≈ 26.1 µM). With `CCOC(=O)Nc1ccc2c(COC(=O)C(NS(=O)(=O)c3ccc(Cl)cc3)C(C)O)cc(=O)oc2c1` (stereo not given) the figure was 20.5 µg/mL (≈ 38 µM); with `CC(C)c1ccccc1-n1cc[nH]c1=S`, greater than 32.7 µg/mL. The compound `CCCc1nc(SCC(=O)c2ccc(OC)cc2)c2ccccc2n1` gave a kinetic solubility of 1.4 µg/mL (≈ 3.97 µM). With `CC(C)OC(=O)CSc1nc(C(C)C)nc2ccccc12` the figure was 2.1 µg/mL (≈ 6.9 µM).

`CC(C)(C)S(=O)(=O)c1cnc(-c2ccccn2)nc1N` yielded a solubility (kinetic) of 34.1 µg/mL (≈ 117 µM). For `O=C1c2ccccc2C(O)N1c1ccccc1` (stereo not given) the value was greater than 33.8 µg/mL. For the compound `CC(C)(C)SCCNS(=O)(=O)c1ccc(C#N)cc1`, the solubility (kinetic) worked out at 18.1 µg/mL (≈ 60.7 µM). For `O=C(Nc1ncccn1)C12CC3CC(CC(C3)C1)C2` the value was greater than 38.6 µg/mL; for `CCN(C(=O)c1ccco1)c1nc(-c2ccc(OC)cc2)cs1`, less than 0.4 µg/mL.

`CSc1cccc(NC(=O)C2(S(=O)(=O)c3ccc(C)cc3)CC2)c1` displayed a kinetic solubility of 19.9 µg/mL (≈ 55.1 µM). With `Cn1c(=O)c2c(nc(N3CCc4ccccc4C3)n2C)n(C)c1=O` the figure was 43.2 µg/mL (≈ 133 µM).

In the case of `CCC(=O)Nc1cc(-c2cc3ccccc3oc2=O)ccc1OC`, the solubility (kinetic) turned out to be 11 µg/mL (≈ 34 µM).

The compound `O=[N+]([O-])c1ccc(-c2nc(NCC3CCCO3)c3ccccc3n2)cc1` (stereo not given) yielded a kinetic solubility of 0.6 µg/mL (≈ 1.71 µM). With `Cc1nc(N)[nH]c(=O)c1CC(=O)OCCCl` the figure was 30.4 µg/mL (≈ 124 µM); with `CCN(c1ccccc1)S(=O)(=O)c1ccc(C(=O)N2CCOCC2)cc1`, greater than 56.2 µg/mL; with `Cl.c1ccc(Cc2ccc(OCCN3CCOCC3)cc2)cc1`, 42.2 µg/mL. As for `c1ccc(Nc2cccc3ccccc23)cc1`, the solubility (kinetic) stood at 1.5 µg/mL (≈ 6.84 µM). For `COc1ccccc1C(C)NCC(=O)Nc1c(F)cccc1F` (stereo not given) the value was greater than 48.1 µg/mL. For `Nn1c(SCC(=O)NC2CCCCCC2)nnc1C(F)(F)F` the value was greater than 50.6 µg/mL; for `CCCCCC(=O)NNC1CC(=O)N(c2ccccc2)C1=O` (stereo not given), greater than 45.5 µg/mL. With `CN(Cc1ccco1)S(=O)(=O)c1csc(C(N)=O)c1` the figure was 44.7 µg/mL (≈ 149 µM). For the compound `O=C(O)Cc1ccc(NC(=O)Cc2ccc3ccccc3c2)cc1`, the solubility (kinetic) worked out at 3.7 µg/mL (≈ 11.6 µM). Against the preceding compound, the solubility kinetic is about 12-fold lower. With `O=C(CNC(=O)c1cccs1)c1ccc(Br)cc1` the figure was 17.9 µg/mL (≈ 55.2 µM).

As for `NC(=O)c1sc2nc(-c3ccccc3)ccc2c1N`, the solubility (kinetic) turned out to be 1 µg/mL (≈ 3.71 µM). Against the preceding compound, the solubility kinetic is about 18-fold lower. For `O=C(Nc1cccc(Cl)c1)Nc1c[nH]c(=O)[nH]c1=O` the value was 3.4 µg/mL (≈ 12.1 µM); for `O=C(Nc1nccs1)c1cccnc1Cl`, greater than 36 µg/mL; for `O=[N+]([O-])c1ccc(N2CCN(c3ccccc3)CC2)cc1`, less than 0.2 µg/mL. With `CCCNC(=O)COC(=O)c1ccc(N2CCCC2)c([N+](=O)[O-])c1` the figure was 15.9 µg/mL (≈ 47.4 µM). Consider `O=C(O)c1ccccc1OCCN1CCCC1=O`, for which the solubility (kinetic) was determined as 36.5 µg/mL (≈ 146 µM). This solubility kinetic lies about 2.3-fold higher than the previous one. For `Cc1ccc(SCC(=O)O/N=C(\N)c2ccncc2)cc1` the value was 29.4 µg/mL (≈ 97.6 µM); for `O=S(=O)(c1ccc(-c2cc(C(F)(F)F)on2)s1)N1CCCC1`, 1 µg/mL (≈ 2.84 µM); for `c1ccc(NCc2ccncc2)cc1`, greater than 27.6 µg/mL.

The compound `O=C(Nc1ccc(-c2n[nH]c(=S)o2)cc1)c1ccccc1` came in with a kinetic solubility greater than 44.6 µg/mL. For `CN1CCCN(Cc2cccc3ccccc23)CC1` the value was 24.7 µg/mL (≈ 97.1 µM); for `CCCNC(=O)Cn1nc(C(F)(F)F)c2c1CCC2`, greater than 41.3 µg/mL.

The compound `N#Cc1ccc(NC(=O)Cn2cnc([N+](=O)[O-])c2)cc1` had a kinetic solubility of 37.4 µg/mL (≈ 138 µM). In the case of `O=C(O)/C(=C/c1ccco1)NC(=O)c1ccc(Br)o1`, the kinetic solubility was greater than 48.9 µg/mL. Consider `Cc1cccc(C)c1NC(=O)CNC(=O)COC(=O)c1ccc(Cl)s1`, for which the kinetic solubility worked out at 23.9 µg/mL (≈ 62.8 µM). `O=C(N/N=C/c1ccccc1O)C(=O)N1CCCCCC1` showed a kinetic solubility greater than 43.4 µg/mL.

As for `Nc1cc(=O)[nH]c(SCCSc2ccccc2)n1`, the kinetic solubility is 9.6 µg/mL (≈ 34.4 µM). For `COc1cc(OC)nc(NC(=O)NS(=O)(=O)c2ccccc2Cl)n1` the value was 45 µg/mL (≈ 121 µM). With `CC(=O)c1ccc(NC(=O)COC(=O)CC2CC3CCC2C3)cc1` (stereo not given) the figure was 37.5 µg/mL (≈ 114 µM); with `COCC(=O)N1CCCC(C(=O)c2ccc(C(F)(F)F)cc2)C1` (stereo not given), greater than 49.4 µg/mL. Regarding `CC(C)CC(=O)Nc1ccc(C(=O)COC(=O)C2CCC2)cc1`, the kinetic solubility was 5.3 µg/mL (≈ 16.7 µM). For `O=C(COC(=O)c1cc[n+]([O-])cc1)Nc1ccc(Cl)cc1Cl` the value was greater than 51.2 µg/mL; for `O=C1CCC(=O)N1c1ccc(S(=O)(=O)N2CCCC2)cc1`, 45.4 µg/mL (≈ 147 µM). `CC(=O)Cn1c(=O)oc2ccccc21`: the solubility (kinetic) was 27.1 µg/mL (≈ 142 µM). This solubility kinetic is about 1.7-fold lower than that of the compound before.

In turn, `O=C(CCn1c(=S)oc2ccccc21)NC1CCCCC1` showed a solubility (kinetic) of 1.6 µg/mL (≈ 5.26 µM). Compared with the last compound, the solubility kinetic is about 17-fold lower. Turning to `Cc1ccc(S(=O)(=O)N(CCO)Cc2ccccc2)cc1`, the kinetic solubility was greater than 45.8 µg/mL. For `Cc1ccc(OCC(=O)NCCCNC(=O)c2ccccn2)cc1` the value was greater than 49.1 µg/mL.

`COc1ccc(CNc2ccc(Cl)cc2)cc1Cn1ccnc1` gave a solubility (kinetic) of 31.1 µg/mL (≈ 94.9 µM). In turn, `CC(C)N(Cc1ccccc1)C(=O)COC(=O)c1ccc(S(=O)(=O)N2CCOCC2)cc1` registered a solubility (kinetic) of 3.1 µg/mL (≈ 6.73 µM).

Turning to `O=C(COc1cccc(Cl)c1Cl)NC1CC1`, the solubility (kinetic) is greater than 39 µg/mL. As for `NC(=O)c1cc(S(=O)(=O)NCCCc2ccco2)cs1`, the solubility (kinetic) is greater than 47.2 µg/mL. Consider `CC(NC(=O)Nc1ccc(Cl)cc1)c1ccccc1` (stereo not given), for which the kinetic solubility turned out to be 1.9 µg/mL (≈ 6.92 µM).

On to `Cc1ccccc1C(=O)Nc1ccc(S(=O)(=O)N2CCOCC2)cc1`, for which the solubility (kinetic) was greater than 54.1 µg/mL. With `O=C(Cc1c(F)cccc1Cl)OCC(=O)N1CCN(c2ccccc2)CC1`, the solubility (kinetic) was 39.6 µg/mL (≈ 101 µM). With `O=C(C(Cl)c1ccccc1)N1CCOCC1` (stereo not given) the figure was 33.5 µg/mL (≈ 140 µM). With `COc1nc(Nc2cccc(F)c2)nc(OC)n1` the figure was 12.8 µg/mL (≈ 51.2 µM); with `Cc1cc(N(C)C)nc(Nc2ccccc2)n1`, greater than 34.2 µg/mL; with `CCN1C(=O)Nc2cccc3cccc1c23`, 4.9 µg/mL (≈ 23.1 µM). `COc1ccc(CC(=O)Nc2ccccc2N2CCCC2)cc1OC` gave a solubility (kinetic) greater than 51.1 µg/mL.

`Brc1cnc2nc(SC/C=C/c3ccccc3)[nH]c2c1` showed a solubility (kinetic) of 0.3 µg/mL (≈ 0.866 µM). For `Cc1cccc(C)c1NC(=O)CN(C)C(=O)CCC(=O)N1CCOCC1` the value was greater than 54.2 µg/mL. `O=C(CCCc1nc(-c2ccccc2)no1)NC1CCCC1` registered a kinetic solubility greater than 44.9 µg/mL. With `O=C(COC(=O)c1ccc2ccccc2c1O)NCC(F)(F)F`, the solubility (kinetic) came out at 2.5 µg/mL (≈ 7.64 µM). With `COc1ccc(N2CCN(c3cc(C)c4cccc(C)c4n3)CC2)cc1` the figure was less than 0.2 µg/mL. For the compound `O=C1CC(c2cccs2)Cc2nc(NC(=O)C3CC3)ncc21` (stereo not given), the solubility (kinetic) is 45.5 µg/mL (≈ 145 µM). Regarding `Cc1ccc(C)c(NC(=O)Cn2cnc3c(oc4ccccc43)c2=O)c1`, the solubility (kinetic) was less than 0.2 µg/mL. In turn, `O=C(O)c1ccc(C(=O)Nc2cccc3ccccc23)c(C(=O)O)c1` returned a solubility (kinetic) greater than 50.3 µg/mL. For the compound `COc1ccccc1CNC(=O)C12CC3CC(CC(C3)C1)C2`, the kinetic solubility turned out to be 2.3 µg/mL (≈ 7.68 µM). With `CCOc1ccccc1NC(=O)NCCCCc1ccccc1` the figure was less than 0.3 µg/mL. For `Cc1ccc2[nH]cc(CCNC(=O)C3CCCCC3)c2c1`, the kinetic solubility worked out at 34.2 µg/mL (≈ 120 µM). With `O=C(/C=C/c1ccccc1)Nc1cccc(S(=O)(=O)Nc2ccccc2F)c1` the figure was 1 µg/mL (≈ 2.52 µM); with `COc1ccccc1NC(=O)C[n+]1ccccc1C.[Cl-]`, 41 µg/mL; with `Cc1ccc(C)c(NC(=O)CN2C(=O)NC(CCc3ccccc3)C2=O)c1` (stereo not given), 2.5 µg/mL (≈ 6.84 µM). With `Cc1cc(NC(=O)Cc2cc(F)cc(F)c2)no1` the figure was 7.5 µg/mL (≈ 29.7 µM); with `CCOC(=O)CNC(=O)CNC(=O)c1ccc(OC(C)C)cc1`, greater than 48.4 µg/mL. With `CC(NC(=O)C1CCCC1)c1ccc(Br)cc1` (stereo not given) the figure was 33.4 µg/mL (≈ 113 µM); with `Cc1ccccc1NC(=O)c1ccco1`, greater than 30.2 µg/mL; with `CCOC(=O)C1CCN(CC(=O)Nc2ccc(OC)c(S(=O)(=O)N3CCCCC3)c2)CC1`, greater than 70.1 µg/mL. On to `CCN(CC)c1ccc(CNCc2cccs2)cc1.Cl`, for which the solubility (kinetic) came out at 44.2 µg/mL.

In turn, `COc1ccc(NC(=O)CN2C(=O)COc3ccc(C)cc32)cc1` yielded a kinetic solubility of 3.3 µg/mL (≈ 10.1 µM). For the compound `Cc1cccc(-c2noc(CCCC(=O)NC3CCCC3)n2)c1`, the kinetic solubility was 42.2 µg/mL (≈ 135 µM). Compared with the last compound, the solubility kinetic is about 13-fold higher. As for `CC(CN1C(C)CCCC1C)OC(=O)c1ccc(Cl)cc1` (stereo not given), the solubility (kinetic) is greater than 46.5 µg/mL. For `COC(=O)c1cc(OC)nc(OC)c1` the value was 3 µg/mL (≈ 15.2 µM); for `NC(=O)c1ccc(NC(=O)COC(=O)c2cc3c(s2)CCC3)cc1`, 8.6 µg/mL (≈ 25 µM); for `CN(C)CCOC1c2ccccc2C=Cc2ccccc21.O=C(O)/C=C\C(=O)O`, greater than 59.3 µg/mL. In turn, `O=C1/C(=C/c2ccsc2)N2CCC1CC2` had a kinetic solubility of 25.9 µg/mL (≈ 118 µM). The compound `CCOC(=O)/C(=C/Nc1ccc(F)cc1)[N+](=O)[O-]` displayed a solubility (kinetic) of 33.9 µg/mL (≈ 133 µM). The solubility kinetic values of the last two compounds are within 1.5-fold of each other. With `NC(=O)CN1CCN(Cc2ccc3c(c2)OCO3)CC1` the figure was greater than 41.6 µg/mL; with `O=C(NC1CCC(O)CC1)c1ccccc1OCc1ccc(F)cc1` (stereo not given), 46.4 µg/mL (≈ 135 µM); with `COc1ccc(CN(C)CC(=O)Nc2ccccc2C(=O)NC2CC2)cc1F`, 56 µg/mL (≈ 145 µM). `CC(C)CNS(=O)(=O)c1ccc(CCC(=O)N2CCCC2)cc1`: the kinetic solubility is greater than 50.8 µg/mL. With `CC(=O)c1ccc(NC(=S)N2CCCCCC2)cc1`, the kinetic solubility was greater than 41.5 µg/mL. For `COc1ccc(OCC(=O)NCc2ccc(Cl)cc2)cc1` the value was 3.3 µg/mL (≈ 10.8 µM); for `O=C(Nc1nc2ccccc2[nH]1)Nc1ccccc1F`, 3.3 µg/mL (≈ 12.2 µM); for `CNS(=O)(=O)c1cccc(C(=O)NCC2CCCCC2)c1`, greater than 46.6 µg/mL. For `Cc1ccccc1NC1=NC2(CCCC2)N=C(N)N1` the value was 28.3 µg/mL (≈ 110 µM). As for `CN(C)c1nc2c(c(=O)[nH]c(=O)n2C)n1CCCc1ccccc1`, the kinetic solubility is greater than 49.1 µg/mL.
